Laboratory results reported in PMC6331910, “The Curcumin Analogue 1,5-Bis(2-hydroxyphenyl)-1,4-pentadiene-3-one Induces Apoptosis and Downregulates E6 and E7 Oncogene Expression in HPV16 and HPV18-Infected Cervical Cancer Cells” (Molecules, 2015).

How the values were obtained:
MRC9 = assay: MTT cell viability (cytotoxicity) assay on non-cancerous lung fibroblasts, 72 h; type: cell-based; details: Homo sapiens, MRC9; MTT, 72 h, non-cancerous lung fibroblasts; read-out: EC50 (Mean ± S.E.M.) MRC9
Description: HeLa, CaSki and MRC9 cells were plated in triplicate wells in 96-well flat-bottomed tissue culture plates (Nunc, Roskilde, Denmark) with 10^5 cells per mL in 100 μL culture media with working concentrations of diarylpentanoid treatment ranging from 1.6 to 100 μM. Control-treated wells contained cells incubated in media with equal volumes of DMSO (0.2%). Cells were treated for 72 h for dose-dependent cytotoxicity assays and at 24, 48 and 72 h for anti-proliferative (time-dependent) assays. In order to assess cell viability and anti-proliferative activity after diarylpentanoid treatment, the colorimetric 3-(4,5-dimethylthiazol-2-yl)-2,5-diphenyltetrazolium bromide (MTT) assay was performed as previously described with modifications. The media was aspirated and cells were incubated in 100 µL complete medium with 0.5 mg/mL MTT solution for 4 h in the dark to allow metabolism of MTT by cellular mitochondrial dehydrogenases. The excess MTT was aspirated and the formazan crystals formed were dissolved by the addition of 100 µL of DMSO. The absorbance of dark blue formazan was read at 570/650 nm wavelengths using a microplate reader (Bio-Rad Benchmark Plus Microplate Spectrophotometer, Hercules, CA, USA). Triplicate absorbance values were averaged and the effect of the compounds on growth inhibition was assessed as percentage cell viability as follows: (1) Percentage cell viability =Absorbance of Test − Absorbance of Blank (media only)/Absorbance of Control − Absorbance of Blank (media only) × 100 where, absorbance = optical density of sample, O.D.; control = untreated sample; test = treated sample.
The results were analysed using GraphPad Prism version 6.00 for Windows (GraphPad Software, La Jolla, CA, USA). Using percentage cell viability Equation (1), log dose–response curves were constructed, from which the half maximal effective concentration, EC50 for each replicate was determined. Overall EC50 was determined by taking the average EC50 from three independent experiments. […] (3) Selectivity Index (SX) =EC50 (MRC9)/EC50 (Cancer cell line) × 100

CaSki [1] = assay: Acridine orange/ethidium bromide double staining, quantification of viable, apoptotic and necrotic cells; type: cell-based, human
Description: (§1) HeLa, 9 μM] at various time points. Each experiment included a set of untreated control cells (Media with DMSO alone). Double staining with acridine orange and ethidium bromide and consequently fluorescent microscopic analysis is an established method by which to distinguish between viable, necrotic and apoptotic cells. […] Following treatment, the cells were pelleted, washed twice in 1× PBS and resuspended in 50 μL 1× PBS. 1 μL of dye mixture (1 part 100 μg/mL acridine orange in PBS and 1 part 100 μg/mL ethidium bromide in PBS) was added to 10 μL of cell suspension and the entire volume was placed on a clean microscope slide. Cells were examined by fluorescence microscopy using the fluorescein filter (BX41, Olympus, Melville, NY, USA) and were distinguished via the morphological aspect of chromatin condensation in stained nuclei as previously established. A minimum of 200 cells were counted per sample and the percentage of cells from each population (viable, live apoptotic, dead apoptotic, necrotic) was calculated.

HeLa = assay: as above; type: cell-based, human
Description: as §1

CaSki [2] = assay: DNA fragmentation, Cell Death Detection ELISA (cytoplasmic nucleosomal enrichment); type: cell-based, human
Description: HeLa, 9 μM] at various time points. Each experiment included a set of untreated control cells (Media with DMSO alone). The enrichment of the cytoplasm of treated cells by mono- and oligonucleosomes are used to study whether enhanced DNA fragmentation is induced by diarylpentanoid treatment. This determination was made following the manufacturer’s instructions of the Cell Death Detection ELISA^PLUS kit (Roche Diagnostics, Mannheim, Germany). […] Following treatment, the cells were incubated in lysis buffer and centrifuged, after which the supernatant was transferred to streptavidin coated plates and shaken with the provided immunoreagent (mixture of anti-DNA-POD and anti-histone biotin) for 2 h. […] Enrichment factor, defined as the release of mono- and oligonucleosomes into the cytoplasm, was calculated using the formula below: (4) Enrichment factor =Absorbance of Test − Absorbance of Blank (substrate only)/Absorbance of Control − Absorbance of Blank (substrate only)

HPV16E7 = assay: Quantitative real-time PCR of viral oncogene mRNA in CaSki cells; type: cell-based, HPV16; details: 24 h
Description: RNA extraction was performed using the Qiagen RNeasy® Mini Kit (Qiagen, Valencia, CA, USA). According to the manufacturer’s instructions, treated HeLa and CaSki cells were lysed using Buffer RLT (supplemented with β-mercaptoethanol) and centrifuged for 3 min at maximum speed. 70% ethanol was added to the lysate and placed in an RNeasy Mini spin column and spun at ≥8000× g for 15 s. Flow-through was discarded and the pellet was subjected to a series of wash steps using buffers RW1 and RPE and subsequent RNA elution. On-column RNase-Free DNase (Qiagen) treatment was incorporated into the extraction protocol to eliminate […]. Concentration and purity of extracted RNA was measured spectrophotometrically using NanoDrop 1000 (Thermo Fisher Scientific, Wilmington, DE, USA). Two μg of total RNA per 20 μL reaction was used for complementary DNA (cDNA) synthesis using a High Capacity RNA-to-cDNA kit (Applied Biosystems, Life Technologies, Foster City, CA, USA). Appropriate volumes of RNA sample were added to 10 μL 2XRT Buffer and 1 μL 20X RT Enzyme Mix and the total volume was adjusted to 20 μL using nuclease-free water. Reverse transcription was performed on the samples using the following conditions; 37 °C for 60 min and 95 °C for 5 min. The sequences used to design the primers and TaqMan® probes were obtained from previous publications, synthesized by Applied Biosystems and optimized to amplify the HPV16 and HPV18 E6 and E7 regions (sequences listed in Table 2) using the StepOnePlus™ Real-Time PCR system (Applied Biosystems). The optimized concentrations of the primers and probes used were […] respectively. Human VIC®-MGB ACTB (β-actin) was used as an endogenous control for internal normalisation and relative gene expression quantification. Each reaction was run in duplicates and used to calculate relative gene expression using the 2^−∆∆CT method. Expression is reported as fold change in the level of mRNA of treated cells relative to untreated cells, normalised to β-actin expression.

O=C(C=Cc1ccccc1O)C=Cc1ccccc1O [MS17, 1,5-bis(2-hydroxyphenyl)-1,4-pentadiene-3-one]
EC50 (MRC9): 4.6 ± 1.2 µM | early apoptotic cells (CaSki [1]; 2 µM, 24 h): 10% | early apoptotic cells (CaSki [1]; 2 µM, 48 h): 20% | early apoptotic cells (CaSki [1]; 4 µM, 24 h): 85% | early apoptotic cells (CaSki [1]; 4 μM, 48 h): 75% | early apoptotic cells (CaSki [1]; 6 µM, 24 h): 55% | necrotic cells (CaSki [1]; 6 µM, 24 h): 30% | early apoptotic cells (CaSki [1]; 6 µM, 48 h): 30% | necrotic cells (CaSki [1]; 6 µM, 48 h): 50% | necrotic cells (CaSki [1]; 2 and 4 µM, 24 and 48 h): ~ 10% | viable cells (CaSki [1]; 24 h, end of dose-dependent decrease (2–6 µM)): less than 5% | viable cells (CaSki [1]; 48 h, with increasing treatment dose (2–6 µM)): less than 5% | early apoptotic cells (HeLa; 3 µM, 24 h): 40% | early apoptotic cells (HeLa; 3 µM, 48 h): 50% | necrotic cells (HeLa; 3 µM, throughout the treatment period (24 and 48 h)): approximately 10% | early apoptotic cells (HeLa; 6 µM, 24 h): 60% | early apoptotic cells (HeLa; 6 µM, 48 h): 30% | necrotic cells (HeLa; 6 µM, throughout the treatment period (24 and 48 h)): approximately 25% | early apoptotic cells (HeLa; 9 µM, 24 h): 50% | necrotic cells (HeLa; 9 µM, 24 h): 40% | early apoptotic cells (HeLa; 9 µM, 48 h): 10% | necrotic cells (HeLa; 9 µM, 48 h): 50% | viable cells (HeLa; 24 h, end of dose-dependent decrease (3–9 µM)): less than 10% | viable cells (HeLa; 48 h, with increasing treatment dose (3–9 µM)): less than 5% | late apoptotic cells (HeLa; all treatment doses, 24 h): ≤ 10% | increase in nucleosome enrichment (CaSki [2]; 4 μM, 24 h, vs untreated): 5 fold | enrichment factor (CaSki [2]; 48 h): no significant difference between doses | enrichment factor (CaSki [2]; 72 h): no significant reduction | inhibition of E7 oncogene expression (HPV16E7; 2 μM and 4 μM): did not show significant inhibition | decrease in HPV16E7 expression (HPV16E7; 6 μM, vs untreated): 3 fold
